In general, kinact refers to the rate constant of inactivation at saturating inhibitor. Broadly, the inhibition is the percentage by which the read-out fell short of the control. A word on the IC50: it is the midpoint of a concentration-inhibition curve.

Results on one molecule are retold here after paper PMC11790956, “A microscale thermophoresis-based enzymatic RNA methyltransferase assay enables the discovery of DNMT2 inhibitors” (Communications Chemistry, 2025).

Entries after “also recorded” stand apart in the source; their conditions may differ. Bounds are passed on as bounds.

Experiment [1] concerns the target T1, DNMT2 (Homo sapiens, UniProt O14717).
T1 construct: made in house
T1 sequence (O14717 1-391): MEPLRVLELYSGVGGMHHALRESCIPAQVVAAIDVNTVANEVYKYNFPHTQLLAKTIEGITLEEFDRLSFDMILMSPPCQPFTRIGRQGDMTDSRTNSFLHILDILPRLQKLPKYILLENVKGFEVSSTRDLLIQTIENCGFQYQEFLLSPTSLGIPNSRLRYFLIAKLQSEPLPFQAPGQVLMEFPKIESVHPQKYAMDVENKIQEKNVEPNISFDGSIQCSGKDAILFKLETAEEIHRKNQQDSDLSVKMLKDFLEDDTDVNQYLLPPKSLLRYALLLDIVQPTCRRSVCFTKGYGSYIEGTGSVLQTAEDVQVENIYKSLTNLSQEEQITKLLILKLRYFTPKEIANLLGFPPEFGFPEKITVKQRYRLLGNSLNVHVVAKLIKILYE
The experiment is described as follows: DNMT2 fluorescence polarization (FP) FTAD displacement assay. Format: binding. The procedure: Fluorescence polarization assays were conducted with a similar sample composition as described for FTAD-MST assays as described previously. Triplicates (50 µL) were prepared in black 96-well half-area plates (Greiner) and measured using a Spark 10 M plate reader (Tecan) equipped with polarization filters coupled to a monochromator setup (FTAD: λex = 480 nm, λem = 530 nm). Polarization values (in mP) were calculated from polarization-specific parallel and orthogonal fluorescence intensities according to the Tecan in-built calculation routine.
Reversibility of alexidine binding to DNMT2 was evaluated with a modified FP-assay setup. Briefly, reaction mixtures containing alexidine were prepared in black 96-well half-area plates, and after FP measurement, the volume of one well (50 µL) was collected and applied to a Zeba™ Spin Desalting Column (7 K MWCO) while 5 µL of a 10x DNMT2 buffer solution (500 mM HEPES, 1.5 M NaCl, 10 mM dithiothreitol (DTT), 1% PEG-8000, 0.5% polysorbate-20, pH 7.4) was placed in the collection tube attached to the SEC column. This procedure separated alexidine and restored the initial composition of the DNMT2 assay solution.
Kinetic FP assays were performed to assess the time-dependent inactivation of DNMT2 treated with covalent inhibitors. Briefly, samples contained 2 µM DNMT2, 100 nM FTAD probe, and 1.3% DMSO in DNMT2 MST buffer. Inhibitors were added from DMSO stocks. Negative inhibition control was performed by mock treatment with DMSO. Reactions were initiated by the addition of the Cpd 11 (adamantanyl-acryloylurea) and monitored for 120 min at 25 °C in a Tecan Spark 10 M plate reader (FTAD: λex = 480 nm, λem = 530 nm) The irreversible inhibition kinetics were analyzed as described previously[35],[36].
Background: Fluorescence polarisation rises when a labelled molecule tumbles more slowly, as on binding a larger partner.

Experiment [2] deals with T1, DNMT2. Kind of experiment: DNMT2 enzymatic split aptamer MST assay. In kind it is biochemical.
Method: The enzyme kinetics were characterized by calculating the Michaelis-Menten constant (KM or kcat) and inhibitory constants (IC50 resp. KI).
The final drug compound concentration was adjusted to 500 µM for the epigenetic drug library (Fig. 5) resp. 100 µM for the covalent compound library (Fig. 6), and the enzymatic reaction was incubated for 30 min at 25 °C. Subsequently, enzymatic reactions were terminated by the addition of 0.3% SDS, and the product SAH was quantified by the split aptamer MST assay (Figs. 5A, B, 6A).
For MTase assay detection by MST, enzyme reaction mixtures with a total volume of 10 µL per single treatment condition were prepared and incubated for the desired reaction times. Inhibitors were added from corresponding DMSO stocks to a final DMSO concentration of max. 5%. Afterward, reactions were quenched at a given reaction time by the addition of 1 µL sodium dodecyl sulfate (SDS, solution, 3% in water) per 10 µL reaction mixture and mixed well by pipetting. Subsequently, 1 µL of a 10× aptamer-containing detection master mix (200 mM Tris, pH 8.5, 200 mM MgCl2, 3 M NaCl, 10 mM urea, 0.2% Brij, 500 nM aptaSAH1, 500 nM aptaSAH2) was added to the quenched MTase reaction and incubated for 1 h at room temperature. Reaction mixtures were loaded directly to MST capillaries without further purification or sample processing.
MST experiments were carried out in at least technical triplicates using a Monolith NT.115 instrument (NanoTemper Technologies) using Monolith standard capillaries and the blue excitation laser setup. The instrument was calibrated according to the manufacturer’s instructions. General settings were applied for all MST experiments as follows: manual temperature control: 25 °C, fluorescence measurement before MST: 4 s, MST (IR laser) on: 20 s, fluorescence after MST: 2 s, delay: 25 s. The laser power was adjusted to optimize the signal-to-noise ratio and the fluorescence signal. LED and MST power settings were chosen individually for each sample by adjusting the LED power to yield fluorescence signals of at least 300 units (blue laser) or 3000 units (red laser) and the MST power to achieve an appropriate thermophoretic response (standard setting: medium MST power).

Consider `C=CC(=O)NC(=O)NC12CC3CC(CC(C3)C1)C2` [Cpd 11, 1-(adamantan-1-yl)-3-(prop-2-enoyl)urea], for which the “displacement of FTAD tracer / binding to SAH-binding site” value on DNMT2 [1] (FP library screening with FTAD tracer) is given as “binding to the SAH-binding site; also recorded: displaced the FP-probe FTAD effectively”. Further, the “time dependence of FTAD displacement” value at DNMT2 [1] (kinetic FP assay) is given as “time-dependent DNMT2 inhibition; also recorded: time-dependent displacement of the FTAD FP-tracer”. Further, the kinact at DNMT2 [1] (kinetic FP assay, kobs vs. [I], 120 min at 25 °C) is 0.00285 s⁻¹. At DNMT2 [2] (100 µM compound, covalent library, 30 min at 25 °C, read-out: DNMT2 inhibition in primary screening), the inhibition at 100 µM is over 90%. This molecule also showed an IC50 against DNMT2 [2] (MST-derived, 250 nM DNMT2, 5 µM tRNA, 0.9 µM SAM) of 4.1 µM.
